The nature of series [1]: Proportion of trans carotenoid in serum and each organ of mice (Test Example 2). The series is classed as in vivo, ICR strain mice. To be noted: mice of Test Example 1, 50 mg/kg orally once daily for 10 days. The method, then: In HPLC, the concentration of adonixanthin was measured as a concentration of each of the cis isomer and the trans isomer. In HPLC, the concentration of astaxanthin was measured as a concentration of each of the cis isomer and the trans isomer. Regarding each of adonixanthin and astaxanthin in serum and each organ of mice of Test Example 1, the proportion of the trans isomer was confirmed.

A short description of series [2]: Transfer into each organ: carotenoid concentration in organs of cynomolgus monkeys (Test Example 3). To be noted: cynomolgus monkey. The series is classed as in vivo. The method, then:
As experimental animals, cynomolgus monkeys were used. Two cynomolgus monkeys were used, and an adonixanthin dosing solution was administered to one monkey (adonixanthin-administering monkey), while an astaxanthin dosing solution was administered to the other monkey (astaxanthin-administering monkey). As the dosing solutions, the dosing solutions obtained in Preparation Example 2 were used, and the dosing solutions at a dose such that the dose of adonixanthin or astaxanthin was 50 mg/kg body weight were administered once daily for 10 days (the day of initiation of administration of the dosing solutions was defined as day 1). As the administration method, a disposable catheter was inserted from the nasal cavity into the stomach, and the dosing solutions were injected into the stomach using a syringe. When the dosing solutions were collected into a syringe, the dosing solutions were collected while being stirred with a stirrer. The dose in each administration was calculated based on the latest body weight at each administration time point (the body weight was measured on the day of initiation of acclimation, the day of end of acclimation, the day of initiation of administration, and before administration on day 8 of administration using an electric balance (HP-40K or GP-40K, both of which are manufactured by A&D Company, Limited)). The administration time was 8:30 to 13:30.
During the administration period of the dosing solution, each cynomolgus monkey was fed about 108 g (about 12 g×9 pieces) of a pellet once daily at 14:00 to 16:00, and the feed remained by the feeding on the next day (for the day of administration, before administration) was recovered. Each cynomolgus monkey was fed tap water at libitum, and maintained on a 12-h light/dark cycle, at […], with a relative humidity of 50±20%.
After blood collection after the last administration of the dosing solutions, an aqueous solution of pentobarbital sodium (manufactured by Tokyo Chemical Industry Co., Ltd.) (64.8 mg/mL) was administered into the cephalic vein at a volume of 0.4 mL/kg body weight to perform anesthesia. After the body weight was measured, each cynomolgus monkey was euthanized by exsanguination, and the brain (cerebral cortex, cerebral medulla, cerebellum, midbrain, striatum putamen, striatum caudate nucleus, hippocampus, medulla oblongata, diencephalon), the heart, the spleen, the liver, the kidneys (right and left), and the retina were collected. Each organ thus collected was stored in a deep freezer (−70° C. or lower).
Each of the concentration of adonixanthin in each organ collected from the adonixanthin-administering monkey (concentration relative to the weight of each organ) and the concentration of astaxanthin in each organ collected from the astaxanthin-administering monkey (concentration relative to the weight of each organ) was measured. Specifically, each organ was homogenized, and extraction was repeated with acetone until no color occurred. Then, filtration through a filter was performed to evaporate acetone, and diethyl ether:hexane (2:8, v/v) was added to the solution to extract a carotenoid. Furthermore, evaporation to dryness was performed, and the residue was dissolved in acetone:hexane (2:8, v/v) and subjected to HPLC. As the HPLC device, a Hitachi L-6000 intelligent pump and an L-4250 UV-VIS detector were used. The measurement wavelength was 450 nm, and a column of 5 μm Cosmosil 5SL-II (inner diameter of 250×4.6 mm) (manufactured by Nacalai Tesque, Inc.) was used. As the mobile phase, acetone:hexane (2:8, v/v) was used, and measurement was performed at a flow rate of 1.0 mL/min.
Each of the concentration of adonixanthin in each organ collected from the adonixanthin-administering monkey and the concentration of astaxanthin in each organ collected from the astaxanthin-administering monkey is shown in Table 2.

A further series concerns 8-OHdG. The series can be described thus: Measurement of 8-OHdG in blood in mice (Test Example 4). The series is classed as in vivo, ICR strain mice. The note with it: 300 mg/kg body weight orally once daily for 14 days, ELISA, vs control administration group (olive oil). From the text: Adonixanthin was used as an asymmetric carotenoid, and astaxanthin was used as a symmetric carotenoid. As experimental animals, ICR strain mice were used. Thirty (30) mice were used, and 10 mice each were assigned to the adonixanthin-administration group, the astaxanthin-administration group, and the control administration group. […]
After end of administration for 14 days, blood was collected from the postcava of the mice under isoflurane absorption anesthesia. […] Thereafter, 8-OHdG of the collected serum was measured using 8-hydroxy 2 deoxyguanosine ELISA Kit (ab201734) (manufactured by Abcam plc.) as an ELISA kit for measurement of 8-OHdG.
Each of the concentration of 8-OHdG in serum collected from the adonixanthin-administration group, and the concentration of 8-OHdG in serum collected from the astaxanthin-administration group, and the concentration of 8-OHdG in serum collected from the control administration group is shown in FIG. 4. The concentration was expressed as mean±standard error. […]

Molecules are shown by their SMILES. Read-outs that look alike come from different tables or passages of the source.

`CC1=C(/C=C/C(C)=C/C=C/C(C)=C/C=C/C=C(C)/C=C/C=C(C)/C=C/C2=C(C)C(=O)C(O)CC2(C)C)C(C)(C)CC(O)C1` (stereo not drawn) [adonixanthin, 3,3′-dihydroxy-β,β-caroten-4-one]: the “Proportion of the trans isomer in each organ versus the cis isomer, FIG. 2” value in series [1] is “especially higher than the proportion of the cis isomer”. Besides, the “Transfer into and retention in each organ (summary of Table 2)” value in series [2] (50 mg/kg intragastric once daily for 10 days) was “especially likely to be transferred into each organ and retained therein”. Besides, the concentration at 10 days was 57.5 ng/g in series [2] (brain, cerebellum, oral, 50 mg/kg, 50 mg/kg intragastric once daily for 10 days, after last administration, read-out: Concentration in organ: Brain, Cerebellum); 48.9 ng/g in series [2] (brain, cerebral cortex, oral, 50 mg/kg, 50 mg/kg intragastric once daily for 10 days, after last administration, read-out: Concentration in organ: Brain, Cerebral cortex); 53.2 ng/g in series [2] (brain, cerebral medulla, oral, 50 mg/kg, 50 mg/kg intragastric once daily for 10 days, after last administration, read-out: Concentration in organ: Brain, Cerebral medulla); 77.1 ng/g in series [2] (brain, diencephalon, oral, 50 mg/kg, 50 mg/kg intragastric once daily for 10 days, after last administration, read-out: Concentration in organ: Brain, Diencephalon); 64 ng/g in series [2] (brain, hippocampus, oral, 50 mg/kg, 50 mg/kg intragastric once daily for 10 days, after last administration, read-out: Concentration in organ: Brain, Hippocampus); 27.6 ng/g in series [2] (brain, medulla oblongata, oral, 50 mg/kg, 50 mg/kg intragastric once daily for 10 days, after last administration, read-out: Concentration in organ: Brain, Medulla oblongata). The concentration at 10 days stood at 7.4 ng/g in series [2] (brain, midbrain, oral, 50 mg/kg, 50 mg/kg intragastric once daily for 10 days, after last administration, read-out: Concentration in organ: Brain, Midbrain); 59.8 ng/g in series [2] (brain, striatum caudate nucleus, oral, 50 mg/kg, 50 mg/kg intragastric once daily for 10 days, after last administration, read-out: Concentration in organ: Brain, Striatum Caudate nucleus); 42.1 ng/g in series [2] (brain, striatum putamen, oral, 50 mg/kg, 50 mg/kg intragastric once daily for 10 days, after last administration, read-out: Concentration in organ: Brain, Striatum Putamen); 305 ng/g in series [2] (heart, oral, 50 mg/kg, 50 mg/kg intragastric once daily for 10 days, after last administration, read-out: Concentration in organ: Heart); 1600 ng/g in series [2] (kidney (left), oral, 50 mg/kg, 50 mg/kg intragastric once daily for 10 days, after last administration, read-out: Concentration in organ: Kidney (left)); 1530 ng/g in series [2] (kidney (right), oral, 50 mg/kg, 50 mg/kg intragastric once daily for 10 days, after last administration, read-out: Concentration in organ: Kidney (right)). Besides, the concentration at 10 days in series [2] (liver, oral, 50 mg/kg, 50 mg/kg intragastric once daily for 10 days, after last administration, read-out: Concentration in organ: Liver) came to 1120 ng/g; in series [2] (retina, oral, 50 mg/kg, 50 mg/kg intragastric once daily for 10 days, after last administration, read-out: Concentration in organ: Retina) it was 689 ng/g; in series [2] (spleen, oral, 50 mg/kg, 50 mg/kg intragastric once daily for 10 days, after last administration, read-out: Concentration in organ: Spleen), 5280 ng/g. Further, the “Concentration of 8-OHdG in serum, FIG. 4” value with 8-OHdG is “significantly lower than that in the control administration group”.
Consider `CC1=C(/C=C/C(C)=C/C=C/C(C)=C/C=C/C=C(C)/C=C/C=C(C)/C=C/C2=C(C)C(=O)C(O)CC2(C)C)C(C)(C)CC(O)C1=O` (stereo not drawn) [astaxanthin, 3,3′-dihydroxy-β,β-carotene-4,4′-dione], for which the “Proportion of the trans isomer in each organ versus the cis isomer, FIG. 2” value in series [1] is recorded as “higher than the proportion of the cis isomer”. Besides, in series [2] (in vivo, 50 mg/kg), the “Transfer into and retention in each organ (summary of Table 2)” value was “exist in each organ at a high concentration”. The concentration at 10 days worked out at 14.4 ng/g in series [2] (in vivo, 50 mg/kg, Concentration in organ: Brain, Cerebellum); 4.8 ng/g in series [2] (in vivo, 50 mg/kg, Concentration in organ: Brain, Cerebral cortex); 8.3 ng/g in series [2] (in vivo, 50 mg/kg, Concentration in organ: Brain, Cerebral medulla); 5.2 ng/g in series [2] (in vivo, 50 mg/kg, Concentration in organ: Brain, Diencephalon); 7.1 ng/g in series [2] (in vivo, 50 mg/kg, Concentration in organ: Brain, Hippocampus); 8.3 ng/g in series [2] (in vivo, 50 mg/kg, Concentration in organ: Brain, Medulla oblongata). In addition, the concentration at 10 days in series [2] (in vivo, 50 mg/kg, Concentration in organ: Brain, Midbrain) stood at 2.9 ng/g; in series [2] (in vivo, 50 mg/kg, Concentration in organ: Brain, Striatum Caudate nucleus), 10.2 ng/g; in series [2] (in vivo, 50 mg/kg, Concentration in organ: Brain, Striatum Putamen), 5 ng/g; in series [2] (in vivo, 50 mg/kg, Concentration in organ: Heart), 15.7 ng/g; in series [2] (in vivo, 50 mg/kg, Concentration in organ: Kidney (left)), 228 ng/g; in series [2] (in vivo, 50 mg/kg, Concentration in organ: Kidney (right)) it was 231 ng/g. Moreover, the concentration at 10 days was 37.8 ng/g in series [2] (in vivo, 50 mg/kg, Concentration in organ: Liver); 24.4 ng/g in series [2] (in vivo, 50 mg/kg, Concentration in organ: Retina); 88.8 ng/g in series [2] (in vivo, 50 mg/kg, Concentration in organ: Spleen). Also, the “Concentration of 8-OHdG in serum, FIG. 4” value in the series on 8-OHdG is on record as “low”.
